# Assay results published in ChEMBL document CHEMBL5723582, “Data for DCP probe T-10430” (2024).
# Experiments:
# Details in all cases: Compound concentration 1.0 uM
# [1] = target: Adenosine receptor A2a (Homo sapiens) (UniProt P29274); test: RLU of ADORA2A at 1.0 µM in the […] PRESTO-Tango GPCRome screen
# [2] = target: Type-1 angiotensin II receptor (Homo sapiens) (UniProt P30556); test: RLU of AGTR1 at 1.0 µM in the […] PRESTO-Tango GPCRome screen
# [3] = target: Vasopressin V1a receptor (Homo sapiens) (UniProt P37288); test: RLU of AVPR1A at 1.0 µM in the […] PRESTO-Tango GPCRome screen
# [4] = target: Bombesin receptor subtype-3 (Homo sapiens) (UniProt P32247); test: RLU of BB3 at 1.0 µM in the […] PRESTO-Tango GPCRome screen
# [5] = target: C5a anaphylatoxin chemotactic receptor 1 (Homo sapiens) (UniProt P21730); test: RLU of C5A at 1.0 µM in the […] PRESTO-Tango GPCRome screen
# [6] = target: C-C chemokine receptor type 10 (Homo sapiens) (UniProt P46092); test: RLU of CCR10 at 1.0 µM in the […] PRESTO-Tango GPCRome screen
# [7] = target: Corticotropin-releasing factor receptor 1 (Homo sapiens) (UniProt P34998); test: RLU of CRHR1 at 1.0 µM in the […] PRESTO-Tango GPCRome screen
# [8] = target: D(2) dopamine receptor (Homo sapiens) (UniProt P14416); test: RLU of DRD2 at 1.0 µM in the […] PRESTO-Tango GPCRome screen
# [9] = target: Adhesion G protein-coupled receptor L4 (Homo sapiens) (UniProt Q9HBW9); test: RLU of ELTD1 at 1.0 µM in the […] PRESTO-Tango GPCRome screen
# [10] = target: Chemerin-like receptor 2 (Homo sapiens) (UniProt P46091); test: RLU of GPR1 at 1.0 µM in the […] PRESTO-Tango GPCRome screen
# [11] = target: Probable G-protein coupled receptor 101 (Homo sapiens) (UniProt Q96P66); test: RLU of GPR101 at 1.0 µM in the […] PRESTO-Tango GPCRome screen
# [12] = target: Free fatty acid receptor 4 (Homo sapiens) (UniProt Q5NUL3); test: RLU of GPR120 at 1.0 µM in the […] PRESTO-Tango GPCRome screen
# [13] = target: Adhesion G protein-coupled receptor A2 (Homo sapiens) (UniProt Q96PE1); test: RLU of GPR124 at 1.0 µM in the […] PRESTO-Tango GPCRome screen
# [14] = target: G-protein coupled receptor 143 (Homo sapiens) (UniProt P51810); test: RLU of GPR143 at 1.0 µM in the […] PRESTO-Tango GPCRome screen
# [15] = target: Probable G-protein coupled receptor 153 (Homo sapiens) (UniProt Q6NV75); test: RLU of GPR153 at 1.0 µM in the […] PRESTO-Tango GPCRome screen
# [16] = target: G-protein coupled receptor 39 (Homo sapiens) (UniProt O43194); test: RLU of GPR39 at 1.0 µM in the […] PRESTO-Tango GPCRome screen
# [17] = target: G-protein coupled receptor 55 (Homo sapiens) (UniProt Q9Y2T6); test: RLU of GPR55 at 1.0 µM in the […] PRESTO-Tango GPCRome screen
# [18] = target: G-protein coupled receptor 61 (Homo sapiens) (UniProt Q9BZJ8); test: RLU of GPR61 at 1.0 µM in the […] PRESTO-Tango GPCRome screen
# [19] = target: Probable G-protein coupled receptor 63 (Homo sapiens) (UniProt Q9BZJ6); test: RLU of GPR63 at 1.0 µM in the […] PRESTO-Tango GPCRome screen
# [20] = target: G-protein coupled receptor 84 (Homo sapiens) (UniProt Q9NQS5); test: RLU of GPR84 at 1.0 µM in the […] PRESTO-Tango GPCRome screen
# [21] = target: G protein-coupled receptor 88 (Homo sapiens) (UniProt Q9GZN0); test: RLU of GPR88 at 1.0 µM in the […] PRESTO-Tango GPCRome screen
# [22] = target: G-protein coupled receptor family C group 5 member B (Homo sapiens) (UniProt Q9NZH0); test: RLU of GPRC5B at 1.0 µM in the […] PRESTO-Tango GPCRome screen
# [23] = target: Metabotropic glutamate receptor 2 (Homo sapiens) (UniProt Q14416); test: RLU of GRM2 at 1.0 µM in the Aequorin PRESTO-Tango GPCRome screen
# [24] = target: Histamine H1 receptor (Homo sapiens) (UniProt P35367); test: RLU of HRH1 at 1.0 µM in the Aequorin PRESTO-Tango GPCRome screen
# [25] = target: 5-hydroxytryptamine receptor 6 (Homo sapiens) (UniProt P50406); test: RLU of HTR6 at 1.0 µM in the […] PRESTO-Tango GPCRome screen
# [26] = target: Mas-related G-protein coupled receptor MRG (Homo sapiens) (UniProt P35410); test: RLU of MAS1L at 1.0 µM in the […] PRESTO-Tango GPCRome screen
# [27] = target: Adrenocorticotropic hormone receptor (Homo sapiens) (UniProt Q01718); test: RLU of MC2R at 1.0 µM in the […] PRESTO-Tango GPCRome screen
# [28] = target: Melanocortin receptor 4 (Homo sapiens) (UniProt P32245); test: RLU of MC4R at 1.0 µM in the […] PRESTO-Tango GPCRome screen
# [29] = target: Neuropeptide FF receptor 1 (Homo sapiens) (UniProt Q9GZQ6); test: RLU of NPFF1 at 1.0 µM in the […] PRESTO-Tango GPCRome screen
# [30] = target: Neuropeptide Y receptor type 4 (Homo sapiens) (UniProt P50391); test: RLU of NPY4R at 1.0 µM in the […] PRESTO-Tango GPCRome screen
# [31] = target: Neurotensin receptor type 2 (Homo sapiens) (UniProt O95665); test: RLU of NTSR2 at 1.0 µM in the […] PRESTO-Tango GPCRome screen
# [32] = target: Oxytocin receptor (Homo sapiens) (UniProt P30559); test: RLU of OXTR at 1.0 µM in the […] PRESTO-Tango GPCRome screen
# [33] = target: P2Y purinoceptor 1 (Homo sapiens) (UniProt P47900); test: RLU of P2RY1 at 1.0 µM in the […] PRESTO-Tango GPCRome screen
# [34] = target: Prostaglandin F2-alpha receptor (Homo sapiens) (UniProt P43088); test: RLU of PTGFR at 1.0 µM in the […] PRESTO-Tango GPCRome screen
# [35] = target: Relaxin receptor 2 (Homo sapiens) (UniProt Q8WXD0); test: RLU of RXFP2 at 1.0 µM in the […] PRESTO-Tango GPCRome screen
# Chain of Probable G-protein coupled receptor 63 (Homo sapiens) (Q9BZJ6 whole entry): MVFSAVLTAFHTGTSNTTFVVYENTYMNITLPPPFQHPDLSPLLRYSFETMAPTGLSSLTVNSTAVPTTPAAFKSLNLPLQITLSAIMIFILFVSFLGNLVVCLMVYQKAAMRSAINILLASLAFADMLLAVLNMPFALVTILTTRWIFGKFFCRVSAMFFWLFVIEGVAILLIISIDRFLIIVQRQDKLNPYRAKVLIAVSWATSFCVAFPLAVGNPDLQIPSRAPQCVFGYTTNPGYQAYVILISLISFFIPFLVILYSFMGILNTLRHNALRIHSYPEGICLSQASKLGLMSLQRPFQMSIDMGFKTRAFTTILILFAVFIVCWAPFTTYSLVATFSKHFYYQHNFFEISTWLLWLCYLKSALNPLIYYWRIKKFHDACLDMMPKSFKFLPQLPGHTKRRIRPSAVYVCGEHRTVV
# Chain of Adhesion G protein-coupled receptor A2 (Homo sapiens) (Q96PE1 whole entry): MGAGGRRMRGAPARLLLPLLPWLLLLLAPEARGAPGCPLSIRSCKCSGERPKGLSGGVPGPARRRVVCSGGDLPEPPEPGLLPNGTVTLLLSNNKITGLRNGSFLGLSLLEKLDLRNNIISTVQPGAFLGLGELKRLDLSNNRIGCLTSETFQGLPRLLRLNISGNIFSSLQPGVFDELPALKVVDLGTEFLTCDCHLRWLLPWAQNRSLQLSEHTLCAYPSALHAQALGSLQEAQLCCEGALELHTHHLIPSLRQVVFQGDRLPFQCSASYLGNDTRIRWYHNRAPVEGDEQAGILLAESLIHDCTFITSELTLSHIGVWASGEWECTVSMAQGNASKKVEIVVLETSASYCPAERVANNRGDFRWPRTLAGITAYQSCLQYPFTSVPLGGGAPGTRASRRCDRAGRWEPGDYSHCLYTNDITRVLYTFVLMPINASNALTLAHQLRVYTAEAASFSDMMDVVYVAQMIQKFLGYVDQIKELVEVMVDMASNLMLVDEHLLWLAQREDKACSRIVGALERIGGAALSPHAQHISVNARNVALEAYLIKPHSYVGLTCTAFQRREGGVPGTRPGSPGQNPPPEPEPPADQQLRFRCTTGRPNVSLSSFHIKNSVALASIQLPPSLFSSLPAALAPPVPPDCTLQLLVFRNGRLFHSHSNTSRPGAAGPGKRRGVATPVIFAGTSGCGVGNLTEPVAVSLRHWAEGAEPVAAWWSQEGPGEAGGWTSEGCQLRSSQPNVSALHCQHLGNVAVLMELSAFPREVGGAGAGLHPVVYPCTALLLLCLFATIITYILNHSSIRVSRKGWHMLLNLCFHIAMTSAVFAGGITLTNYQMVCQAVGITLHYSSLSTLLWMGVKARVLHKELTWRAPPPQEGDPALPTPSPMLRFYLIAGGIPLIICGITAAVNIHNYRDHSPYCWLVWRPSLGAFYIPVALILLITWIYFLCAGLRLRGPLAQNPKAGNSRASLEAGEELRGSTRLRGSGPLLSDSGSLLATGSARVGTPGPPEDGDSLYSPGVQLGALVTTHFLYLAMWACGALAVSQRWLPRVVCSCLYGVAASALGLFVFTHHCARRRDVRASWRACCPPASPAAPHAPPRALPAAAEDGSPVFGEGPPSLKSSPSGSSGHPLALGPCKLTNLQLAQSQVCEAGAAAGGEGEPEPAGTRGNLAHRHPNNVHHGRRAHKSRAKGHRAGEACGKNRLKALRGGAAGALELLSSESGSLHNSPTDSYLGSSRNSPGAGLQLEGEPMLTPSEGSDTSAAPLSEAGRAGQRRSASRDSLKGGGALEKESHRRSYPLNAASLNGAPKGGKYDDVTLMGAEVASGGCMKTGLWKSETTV
# Chain of Neurotensin receptor type 2 (Homo sapiens) (O95665 whole entry): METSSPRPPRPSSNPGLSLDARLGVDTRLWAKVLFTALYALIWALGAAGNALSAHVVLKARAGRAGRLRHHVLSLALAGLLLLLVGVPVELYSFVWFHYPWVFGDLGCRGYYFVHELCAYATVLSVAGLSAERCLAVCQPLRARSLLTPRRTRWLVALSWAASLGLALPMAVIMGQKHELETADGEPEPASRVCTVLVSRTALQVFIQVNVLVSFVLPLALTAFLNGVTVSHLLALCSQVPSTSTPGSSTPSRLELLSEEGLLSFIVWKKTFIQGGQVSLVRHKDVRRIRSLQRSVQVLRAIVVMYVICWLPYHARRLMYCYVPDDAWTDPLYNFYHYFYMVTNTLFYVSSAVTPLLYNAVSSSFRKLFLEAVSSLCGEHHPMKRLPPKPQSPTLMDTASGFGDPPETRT
# Chain of G-protein coupled receptor 61 (Homo sapiens) (Q9BZJ8 whole entry): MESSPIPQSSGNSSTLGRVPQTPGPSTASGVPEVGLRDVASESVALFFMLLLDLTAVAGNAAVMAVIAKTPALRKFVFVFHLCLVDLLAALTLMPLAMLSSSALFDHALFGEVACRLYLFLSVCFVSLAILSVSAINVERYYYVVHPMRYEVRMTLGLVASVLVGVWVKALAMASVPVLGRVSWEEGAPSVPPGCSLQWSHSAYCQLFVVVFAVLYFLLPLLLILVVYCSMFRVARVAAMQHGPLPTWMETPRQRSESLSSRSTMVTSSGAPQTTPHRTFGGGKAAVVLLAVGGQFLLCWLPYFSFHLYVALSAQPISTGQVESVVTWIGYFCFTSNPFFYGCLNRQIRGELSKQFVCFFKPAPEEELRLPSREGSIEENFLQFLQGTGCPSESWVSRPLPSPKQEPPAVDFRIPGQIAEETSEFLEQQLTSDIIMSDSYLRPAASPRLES
# Chain of Neuropeptide FF receptor 1 (Homo sapiens) (Q9GZQ6 whole entry): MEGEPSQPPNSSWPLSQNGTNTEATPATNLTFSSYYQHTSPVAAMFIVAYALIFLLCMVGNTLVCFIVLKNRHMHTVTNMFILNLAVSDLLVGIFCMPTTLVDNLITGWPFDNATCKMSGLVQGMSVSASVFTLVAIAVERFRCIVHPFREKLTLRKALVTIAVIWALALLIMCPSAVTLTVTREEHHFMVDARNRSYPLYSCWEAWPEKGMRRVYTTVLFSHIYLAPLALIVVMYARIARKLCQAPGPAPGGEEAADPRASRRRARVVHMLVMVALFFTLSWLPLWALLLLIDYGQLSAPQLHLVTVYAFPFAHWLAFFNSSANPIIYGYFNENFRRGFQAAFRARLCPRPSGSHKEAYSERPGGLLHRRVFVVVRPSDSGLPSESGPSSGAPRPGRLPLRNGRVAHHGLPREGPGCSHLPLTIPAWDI
# Chain of 5-hydroxytryptamine receptor 6 (Homo sapiens) (P50406 whole entry): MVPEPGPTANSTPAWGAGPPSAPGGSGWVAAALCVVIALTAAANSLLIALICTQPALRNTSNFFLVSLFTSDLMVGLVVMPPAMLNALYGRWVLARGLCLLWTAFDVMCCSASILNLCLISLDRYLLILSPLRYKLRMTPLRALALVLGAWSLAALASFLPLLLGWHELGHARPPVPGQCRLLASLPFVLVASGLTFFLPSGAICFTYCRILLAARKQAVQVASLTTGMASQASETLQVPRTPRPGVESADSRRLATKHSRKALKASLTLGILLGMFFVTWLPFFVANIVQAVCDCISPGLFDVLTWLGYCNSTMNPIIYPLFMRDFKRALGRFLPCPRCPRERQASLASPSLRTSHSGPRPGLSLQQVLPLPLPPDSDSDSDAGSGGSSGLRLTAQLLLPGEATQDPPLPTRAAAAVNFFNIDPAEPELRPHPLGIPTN
# Chain of Histamine H1 receptor (Homo sapiens) (P35367 whole entry): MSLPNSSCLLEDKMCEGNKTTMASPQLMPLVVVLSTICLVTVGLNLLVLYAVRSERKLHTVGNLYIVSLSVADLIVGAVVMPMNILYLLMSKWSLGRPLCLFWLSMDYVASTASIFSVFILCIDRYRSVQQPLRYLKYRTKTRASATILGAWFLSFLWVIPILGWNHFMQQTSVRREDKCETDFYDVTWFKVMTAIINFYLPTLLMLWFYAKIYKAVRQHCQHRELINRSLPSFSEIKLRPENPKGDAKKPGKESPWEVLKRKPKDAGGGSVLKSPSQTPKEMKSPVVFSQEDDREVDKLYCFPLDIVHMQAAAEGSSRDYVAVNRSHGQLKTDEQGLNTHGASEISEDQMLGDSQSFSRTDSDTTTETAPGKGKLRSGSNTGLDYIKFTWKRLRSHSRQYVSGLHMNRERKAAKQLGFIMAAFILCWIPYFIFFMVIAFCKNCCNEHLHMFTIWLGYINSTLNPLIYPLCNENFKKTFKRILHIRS
# Chain of G-protein coupled receptor 143 (Homo sapiens) (P51810 whole entry): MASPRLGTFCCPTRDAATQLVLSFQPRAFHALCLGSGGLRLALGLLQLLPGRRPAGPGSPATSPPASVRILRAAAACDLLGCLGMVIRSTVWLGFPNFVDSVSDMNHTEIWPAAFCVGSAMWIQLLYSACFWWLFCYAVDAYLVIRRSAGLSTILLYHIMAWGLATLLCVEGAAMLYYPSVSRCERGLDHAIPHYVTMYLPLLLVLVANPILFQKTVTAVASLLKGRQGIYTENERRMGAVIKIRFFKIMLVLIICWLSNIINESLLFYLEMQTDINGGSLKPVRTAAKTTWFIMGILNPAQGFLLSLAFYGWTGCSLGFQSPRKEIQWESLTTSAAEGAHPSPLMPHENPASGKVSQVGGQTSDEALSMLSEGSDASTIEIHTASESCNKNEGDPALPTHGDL
# Chain of Oxytocin receptor (Homo sapiens) (P30559 whole entry): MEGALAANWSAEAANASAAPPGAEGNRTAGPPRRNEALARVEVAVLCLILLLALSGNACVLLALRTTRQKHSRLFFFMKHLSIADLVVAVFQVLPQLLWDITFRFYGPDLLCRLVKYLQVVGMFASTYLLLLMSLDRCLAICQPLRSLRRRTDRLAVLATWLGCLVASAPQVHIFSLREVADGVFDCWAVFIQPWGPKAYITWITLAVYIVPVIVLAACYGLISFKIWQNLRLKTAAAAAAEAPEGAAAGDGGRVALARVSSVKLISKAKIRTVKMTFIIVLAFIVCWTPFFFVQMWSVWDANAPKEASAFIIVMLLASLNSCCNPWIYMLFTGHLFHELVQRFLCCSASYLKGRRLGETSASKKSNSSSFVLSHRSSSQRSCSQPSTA
smiles,measurement,setting,value
CCCCC(=O)N1CC2(C1)CN(c1ccccc1-c1nnn[nH]1)C2,RLU,[1],1000
same,RLU,[2],9130
same,RLU,[3],5670
same,RLU,[4],-2040
same,RLU,[5],2280
same,RLU,[6],464
same,RLU,[7],5080
same,RLU,[8],2200
same,RLU,[9],1170
same,RLU,[10],-60.1
same,RLU,[11],-2170
same,RLU,[12],1030
same,RLU,[13],-2920
same,RLU,[14],-2070
same,RLU,[15],-4690
same,RLU,[16],8020
same,RLU,[17],602000
same,RLU,[18],1400
same,RLU,[19],-87.9
same,RLU,[20],-3990
same,RLU,[21],162
same,RLU,[22],-3640
same,RLU,[23],-1460
same,RLU,[24],13500
same,RLU,[25],5340
same,RLU,[26],2610
same,RLU,[27],1070
same,RLU,[28],-2110
same,RLU,[29],4030
same,RLU,[30],-158
same,RLU,[31],634
same,RLU,[32],-479
same,RLU,[33],1690
same,RLU,[34],-81.2
same,RLU,[35],-900
